Tests used:
MCF7 CARM1 KO cells = test: Quantitative MS of ADMA-containing peptides in MCF7 CARM1 KO cells expressing CARM1 28-608 or CARM1 140-608, and in CARM1 KO; type: cell-based, human
MCF7 cells = test: Quantitative nanoLC-MS/MS (TMT) of ADMA-containing peptides, CARM1 KO vs parental; type: cell-based, human; parameters: Fold change KO/WT: scale not given here
[1] = CARM1 140-608 versus WT, difference of mean log2 values
[2] = CARM1 KO versus WT, difference of mean log2 values
[3] = CARM1 KO vs wild type MCF7 cells, 3 biological replicates each
[4] = log2 scale ratio, mean of n = 3
[5] = ADMA-containing peptide, MCF7, CARM1 knockout (KO1-3) vs wild type (WT1-3), TMT 6-plex experiment #1
[6] = mean, CARM1 140-608 versus WT (log2 scale)
[7] = mean, CARM1 KO versus WT (log2 scale)
[8] = MCF7 CARM1 knockout vs wild type, 3 biological replicates each, values are on log2 scale
[9] = CARM1 140-608 vs WT, mean of 3 replicates (log2 scale)
[10] = KO vs WT, mean of 3 replicates (log2 scale)
[11] = MCF7, CARM1 KO (KO1-KO3) vs wild type (WT1-WT3)
[12] = MCF7, CARM1 knockout vs wild type, n = 3 each
[13] = ratio on log2 scale, mean of 3 replicates
[14] = difference of log2 means, CARM1 140-608 vs WT
[15] = difference of log2 means, KO vs WT
[16] = ADMA-containing peptide, CARM1 knockout (KO) vs wild type (WT) MCF7 cells, 6-plex TMT experiment #1, three biological replicates each, sheet "MCF7"
[17] = CARM1 140-608 vs WT, mean of 3 replicates, log2
[18] = KO vs WT, mean of 3 replicates, log2
[19] = MCF7, CARM1 KO vs WT, three biological replicates each
[20] = CARM1 140-608 versus WT, mean of three replicates (log2)
[21] = KO versus WT, mean of three replicates (log2)

YPLPPPSGrYNWN
CARM1 140-608/WT (MCF7 CARM1 KO cells; [1]): -1.592 | KO/WT (MCF7 CARM1 KO cells; [2]): -1.5401 | Fold change KO/WT (MCF7 cells; [3]): -1.371

FrPNPLNNPR
CARM1 140-608/WT (MCF7 CARM1 KO cells; [4]): 0.04278 | KO/WT (MCF7 CARM1 KO cells; [4]): 0.4697 | Fold change KO/WT (MCF7 cells; [5]): 0.07251

EVYQQQQYGSGGrGNR
CARM1 140-608/WT (MCF7 CARM1 KO cells; [6]): -0.0375 | KO/WT (MCF7 CARM1 KO cells; [7]): 0.5359 | Fold change KO/WT (MCF7 cells; [8]): 0.5359

QPPPLQQQArFIQPrPTLNQPPPPLIrPANSMPPR
CARM1 140-608/WT (MCF7 CARM1 KO cells; [9]): 1.096 | KO/WT (MCF7 CARM1 KO cells; [10]): -1.373 | Fold change KO/WT (MCF7 cells; [11]): -1.373

KPLGTAPHCPrLPLRK
CARM1 140-608/WT (MCF7 CARM1 KO cells; [6]): -2.5902 | KO/WT (MCF7 CARM1 KO cells; [7]): -4.08 | Fold change KO/WT (MCF7 cells; [12]): -4.08

ErYLGGIK
CARM1 140-608/WT (MCF7 CARM1 KO cells; [13]): 0.1385 | KO/WT (MCF7 CARM1 KO cells; [13]): 0.4212 | Fold change KO/WT (MCF7 cells; [12]): 0.4212

LSAETWDLLrLPLER
CARM1 140-608/WT (MCF7 CARM1 KO cells; [6]): -2.21 | KO/WT (MCF7 CARM1 KO cells; [7]): -3.314 | Fold change KO/WT (MCF7 cells; [12]): -3.314

NPHTLGLSrYHPYGK
CARM1 140-608/WT (MCF7 CARM1 KO cells; [1]): -0.4138 | KO/WT (MCF7 CARM1 KO cells; [2]): -0.4466 | Fold change KO/WT (MCF7 cells; [3]): -0.4466

ASrGrGGLGPSWASANSGSGGSrGK
CARM1 140-608/WT (MCF7 CARM1 KO cells; [6]): 0.01356 | KO/WT (MCF7 CARM1 KO cells; [7]): 0.5944 | Fold change KO/WT (MCF7 cells; [8]): 0.06985

GAPHFrFIIAGR
CARM1 140-608/WT (MCF7 CARM1 KO cells; [4]): -0.6361 | KO/WT (MCF7 CARM1 KO cells; [4]): -0.5643 | Fold change KO/WT (MCF7 cells; [5]): -0.1995

LYrYSPQSFLPDSTIQK
CARM1 140-608/WT (MCF7 CARM1 KO cells; [6]): -2.17 | KO/WT (MCF7 CARM1 KO cells; [7]): -2.857 | Fold change KO/WT (MCF7 cells; [8]): -2.857

APAGGSLGrALMR
CARM1 140-608/WT (MCF7 CARM1 KO cells; [14]): -0.03816 | KO/WT (MCF7 CARM1 KO cells; [15]): 0.3587 | Fold change KO/WT (MCF7 cells; [16]): -0.2145

GArGLMNGYR
CARM1 140-608/WT (MCF7 CARM1 KO cells; [17]): 0.7786 | KO/WT (MCF7 CARM1 KO cells; [18]): 0.02481 | Fold change KO/WT (MCF7 cells; [19]): 0.02481

APPGGLHAPrLSLEGAArGAAEAK
CARM1 140-608/WT (MCF7 CARM1 KO cells; [17]): -2.013 | KO/WT (MCF7 CARM1 KO cells; [18]): -2.606 | Fold change KO/WT (MCF7 cells; [19]): -2.606

LGRPIGALArGAIGGR
CARM1 140-608/WT (MCF7 CARM1 KO cells; [13]): 0.09518 | KO/WT (MCF7 CARM1 KO cells; [13]): 1.211 | Fold change KO/WT (MCF7 cells; [19]): 0.325

GSGTGIYSNAAPPPVTYQGNLYrPLLR
CARM1 140-608/WT (MCF7 CARM1 KO cells; [1]): 1.554 | KO/WT (MCF7 CARM1 KO cells; [2]): -1.424 | Fold change KO/WT (MCF7 cells; [3]): -2.788

NVNPVILLNTQTrPYGFGLNHGHTPYSSMLNQGLGVPGIGATQGLrTGFTNIPSrYGTNNR
CARM1 140-608/WT (MCF7 CARM1 KO cells; [9]): -1.7448 | KO/WT (MCF7 CARM1 KO cells; [10]): -2.828 | Fold change KO/WT (MCF7 cells; [11]): -2.828

DQPGTSAVPNLASVGTrLPPPLPQNLLYTVSErQPMYSR
CARM1 140-608/WT (MCF7 CARM1 KO cells; [20]): -2.641 | KO/WT (MCF7 CARM1 KO cells; [21]): -3.343 | Fold change KO/WT (MCF7 cells; [11]): -3.343

AVDLTKPYQNQQLSIrVPLR
CARM1 140-608/WT (MCF7 CARM1 KO cells; [17]): -2.717 | KO/WT (MCF7 CARM1 KO cells; [18]): -4.115 | Fold change KO/WT (MCF7 cells; [19]): -2.685

LHPQLHrAPIR
CARM1 140-608/WT (MCF7 CARM1 KO cells; [20]): -0.07051 | KO/WT (MCF7 CARM1 KO cells; [21]): 1.076 | Fold change KO/WT (MCF7 cells; [16]): 1.076

GPPPGSANPPrLVSSYrLK
CARM1 140-608/WT (MCF7 CARM1 KO cells; [14]): -0.6365 | KO/WT (MCF7 CARM1 KO cells; [15]): -1.758 | Fold change KO/WT (MCF7 cells; [8]): -2.444

GLGPGGTPFPGQGPPQrPrFYPVSEDPHR
CARM1 140-608/WT (MCF7 CARM1 KO cells; [14]): -1.244 | KO/WT (MCF7 CARM1 KO cells; [15]): -1.165 | Fold change KO/WT (MCF7 cells; [8]): -1.165

ITVPrLSVGSVTSrPSTPTLGTPTPQTMSVSTK
CARM1 140-608/WT (MCF7 CARM1 KO cells; [4]): -1.745 | KO/WT (MCF7 CARM1 KO cells; [4]): -2.222 | Fold change KO/WT (MCF7 cells; [5]): -2.222

GQPVGGLrFEGPHGQPVGGLrFDNPR
CARM1 140-608/WT (MCF7 CARM1 KO cells; [20]): 0.02925 | KO/WT (MCF7 CARM1 KO cells; [21]): -0.8726 | Fold change KO/WT (MCF7 cells; [16]): -1.132

From article PMC5458078, “Global mapping of CARM1 substrates defines enzyme specificity and substrate recognition” (Nature Communications, 2017)
